Data: patent US20110212100A1, “METHODS FOR MODULATING DEVELOPMENT AND EXPANSION OF IL-17 EXPRESSING CELLS” (priority 2007, published 2011)

Columns and labels:
[1] = system: human memory T cells (CD4+ CD45RO+); experiment: IL-17 and IFNγ expression by human memory T cells co-cultured with monocytes; assay type: cell-based; conditions: 100 nM HF, 6 days
Description: FIG. 10F is an illustration depicting purified primary human memory T cells (CD4^+ CD45RO^+) activated by anti-CD3/anti-CD28 coated beads in co-culture with CD14^+ monocytes and treated with DMSO, 100 nM HF or 100 nM MAZ1310. T cells were expanded for 6 days and intracellular cytokine expression was determined following restimuation with PMA plus ionomycin in the presence of brefeldin A.
Human T cell isolation and activation: Resting CD4^+ T cells were isolated from PBMC of healthy human donors using Dynal CD4 Positive Isolation Kit (Invitrogen, Carlsbad, Calif.) as previously described (M. Sundrud et al., Blood 106, 3440, 2005). CD4^+ cells were further purified to obtain memory T cells by staining with PE-conjugated anti-human CD45RO-PE antibodies (BD Biosciences), and sorting on a FACSAria cytometer (BD Biosciences). Following purification, cells were greater than 99% CD4^+ CD45RO^+. […] T cells were expanded in the presence HF or MAZ1310 as indicated for 6 days and intracellular cytokine expression was determined by intracellular staining.
Detection of cytokine production: Cytokines secreted into media supernatant were measured using the mouse Th1/Th2 cytometric bead array (CBA, BD Pharmingen) in accordance with manufacturers instructions. […]

[2] = system: STAT3 phosphorylation; experiment: Kinetics of STAT3 phosphorylation in developing Th17 cells; assay type: cell-based, mouse
Description: FIG. 11A is a series of graphs depicting representative histograms displaying the kinetics of STAT3 phosphorylation in developing Th17 cells treated with or without HF. Resting naïve T cells (shaded peak), T cells activated in the presence of TGFβ plus IL-6 (TGFβ/IL-6) treated with 10 nM MAZ1310, TGFβ/IL-6-activated T cells treated with 5 nM HF, TGFβ/IL-6-activated T cells treated with 10 nM HF. T cells were fixed at the indicated times and intracellular phospho-STAT3 staining was performed.
FACS analyses and sorting: All cell surface staining was performed in FACS buffer (PBS/2% FCS/0.1% NaN3) and antibodies were incubated with cells on ice for 20-30 minutes. Cells were washed with FACS buffer and fixed with FACS buffer plus 1% paraformaldehyde prior to data acquisition. For phospho-STAT3 intracellular staining, stimulated T cells cultured with or without TGF plus IL-6 for the indicated times were harvested on ice and fixed in PBS plus 2% paraformaldehyde for 10 minutes at 37° C. Fixed cells were washed twice with staining buffer (PBS/1% BSA/0.1% NaN3) and then permeabilized with perm buffer III (BD Pharmingen) on ice for 30 minutes. […] All FACS data was acquired on a FACSCalibur flow cytometer (BD Pharmingen) and analyzed using FlowJo software (Treestar, Inc., Ashland, Oreg.). […]

[3] = system: Xenopus feeding stage tadpoles; experiment: Toxicity in Xenopus feeding stage tadpoles; assay type: in vivo; conditions: 400 nM HF, 7 days
Description: At concentrations over 80 nM, HF has a variety of non-specific effects on both T-cells and fibroblasts. […] At the recommended tolerated dose for chronic treatment (0.5 mg/day), plasma levels of HF were ˜0.5 ng/ml (1 nM). (de.Jonge et al., Eur J Cancer, vol. 42(12):1768-74 (2006)).

O=C(CC1NCCCC1O)Cn1cnc2cc(Br)c(Cl)cc2c1=O (racemic) [HF, 7-bromo-6-chloro-3-[3-(3-hydroxy-2-piperidinyl)-2-oxopropyl]-4(3H)-quinazolinone]
IFNγ expression by human T cells, in words [1]: essentially unaffected
percentage of human T cells expressing IL-17 and amount of IL-17 produced, in words [1]: greatly reduced
time post activation at which maintenance of STAT3 phosphorylation begins to decrease ([2]; 5 or 10 nM HF, TGFβ plus IL-6): around 12 hours
effect on early STAT3 activation, in words ([2]; first 6 hours of Th17 differentiation): did not interfere with STAT3 activation during the first 6 hours
toxic effects in tadpoles, in words [3]: does not have detectable toxic effects
